Read-outs that look alike come from different tables or passages of the source.
Tests used:
[1] = system: acutely dissociated and purified rat OPCs; experiment: Acute OL differentiation assay (MBP expression/cell, immunofluorescent image quantification); type: cell-based; settings: Rattus norvegicus, sheet "All OLga data"
Outline: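 Oligodendrocyte precursor cells were enriched from P6-P7 Sprague–Dawley rat brains by immunopanning (RAN-2 and GalC depletion, O4 selection), plated at 5000 cells/well in serum-free, mitogen-free differentiation media on PDL/laminin 96-well view plates, centrifuged at 200×g, and pre-incubated 1–2 h before test compounds were added in quadruplicate. On DIV4, cells were fixed, stained for MBP and DAPI, imaged automatically, and MBP expression per cell was quantified.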

expanded OPCs = experiment: cells; settings: for viability at 0.1 µM / viability at 1 µM / viability at 10 µM: Rattus norvegicus, 72 h; for 0.1 µM (% DMSO) / 1 µM (% DMSO) / 10 µM (% DMSO): alamarBlue viability of expanded OPCs, relative to DMSO control; for 0.1 µM (% DMSO): compound at 0.1 µM; for 1 µM (% DMSO): compound at 1 µM; for 10 µM (% DMSO): compound at 10 µM
Outline: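 Expanded OPCs seeded at 10,000 cells/well in differentiation media, then exposed to NCC library compounds at 10, 1 and 0.1 µM (quadruplicate, 0.1% DMSO) for three days. Viability read as alamarBlue fluorescence (560/590 nm) after 4 h at 37 °C; tunicamycin 5 ng/ml served as toxicity control.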

[2] = test compound at 2 uM, NCC library screen, relative to quetiapine, read-out: 2 uM (% Quet)
[3] = test compound at 10 uM, NCC library screen, relative to quetiapine, read-out: 10 uM (% Quet)
[4] = read-out: 0.1 µM (% DMSO), alamarBlue viability, NCC library compound at 0.1 µM, sheet "All Tox data"
[5] = read-out: 1 µM (% DMSO), alamarBlue viability, NCC library compound at 1 µM, sheet "All Tox data"
[6] = read-out: 10 µM (% DMSO), alamarBlue viability, NCC library compound at 10 µM, sheet "All Tox data"
[7] = 0.4 uM test compound, relative to quetiapine, read-out: OL differentiation, 0.4 uM (% Quet)
[8] = 2 uM test compound, relative to quetiapine, read-out: OL differentiation, 2 uM (% Quet)
[9] = read-out: 0.1 µM (% DMSO), alamarBlue viability of expanded OPCs, compound at 0.1 µM, sheet All Tox data
[10] = read-out: 1 µM (% DMSO), alamarBlue viability of expanded OPCs, compound at 1 µM, sheet All Tox data
[11] = read-out: 10 µM (% DMSO), alamarBlue viability of expanded OPCs, compound at 10 µM, sheet All Tox data
[12] = 10 uM test compound, relative to quetiapine, read-out: OL differentiation, 10 uM (% Quet)

| Compound | activation at 2 µM [1, 2] | activation at 10 µM [1, 3] | viability at 0.1 µM (expanded OPCs; [4]) | viability at 1 µM (expanded OPCs; [5]) | viability at 10 µM (expanded OPCs; [6]) | activation at 2 µM [1, 8] | viability at 0.1 µM (expanded OPCs; [9]) | viability at 1 µM (expanded OPCs; [10]) | viability at 10 µM (expanded OPCs; [11]) | also measured |
| --- | --- | --- | --- | --- | --- | --- | --- | --- | --- | --- |
| C=CCN1CC[C@]23c4c5ccc(O)c4O[C@H]2C(=O)CC[C@@]3(O)[C@H]1C5 [Naloxone] | -2.8% | -10.8% | 94.2% | 90.1% | 85.6% | – | – | – | – | – |
| O=C1CC[C@@]2(O)[C@H]3Cc4ccc(O)c5c4[C@@]2(CCN3CC2CC2)[C@H]1O5 [Naltrexone] | – | – | – | – | – | – | – | – | – | activation at 2 µM ([1]; test compound at 2 uM, MBP expression relative to quetiapine, NCC library screen, read-out: 2 uM (% Quet)): 12.8%; activation at 10 µM ([1]; test compound at 10 uM, MBP expression relative to quetiapine, NCC library screen, read-out: 10 uM (% Quet)): -5.6%; 0.1 µM (% DMSO) (expanded OPCs): 99.5 % DMSO; 1 µM (% DMSO) (expanded OPCs): 101.6 % DMSO; 10 µM (% DMSO) (expanded OPCs): 97.3 % DMSO |
| Oc1ccc2c3c1O[C@H]1c4[nH]c5ccccc5c4C[C@@]4(O)[C@@H](C2)N(CC2CC2)CC[C@]314 [Naltrindole] | – | – | – | – | – | -35.8% | 80.6% | 66.7% | 17.9% | activation at 0.4 µM [1, 7]: -9.9% |
| C[C@]12CC[C@H]3[C@@H](CCC4=CC(=O)CC[C@@H]43)[C@@H]1CC[C@@H]2O [Nandrolone] | – | – | – | – | – | -5.9% | 94.4% | 98.5% | 96.2% | activation at 10 µM [1, 12]: -26.5% |
| c1ccc2c(CC3=NCCN3)cccc2c1 [Naphazoline] | -4.8% | -45.4% | – | – | – | – | – | – | – | 0.1 µM (% DMSO) (expanded OPCs): 92.9 % DMSO; 1 µM (% DMSO) (expanded OPCs): 92.8 % DMSO; 10 µM (% DMSO) (expanded OPCs): 78.6 % DMSO |
| COc1ccc2cc([C@H](C)C(=O)O)ccc2c1 [Naproxen] | 1% | -0.6% | 91.1% | 95.1% | 94% | – | – | – | – | – |
| CC(C)[C@H]1CC[C@H](C(=O)N[C@H](Cc2ccccc2)C(=O)O)CC1 [Nateglinide] | – | – | – | – | – | -26.4% | 93.4% | 92.4% | 99.5% | activation at 10 µM [1, 12]: -12.7% |
| CCc1nn(CCCN2CCN(c3cccc(Cl)c3)CC2)c(=O)n1CCOc1ccccc1 [Nefazodone] | – | – | – | – | – | 0.4% | 99.6% | 111% | 42.8% | activation at 0.4 µM [1, 7]: -5.2% |
| Cc1c(O)cccc1C(=O)N[C@@H](CSc1ccccc1)[C@H](O)CN1C[C@H]2CCCC[C@H]2C[C@H]1C(=O)NC(C)(C)C [Nelfinavir] | – | – | – | – | – | -84.5% | 100% | 59% | 11.3% | activation at 0.4 µM [1, 7]: -21.8% |
| Cc1ccnc2c1NC(=O)c1cccnc1N2C1CC1 [Nevirapine] | – | – | – | – | – | 0.24% | 93.7% | 90.2% | 93.3% | activation at 10 µM [1, 12]: 15.9% |
| O=C(O)c1cccnc1 [Niacin] | -3.6% | 3.6% | – | – | – | – | – | – | – | 0.1 µM (% DMSO) (expanded OPCs): 92.4 % DMSO; 1 µM (% DMSO) (expanded OPCs): 94.0 % DMSO; 10 µM (% DMSO) (expanded OPCs): 85.5 % DMSO |
| NC(=O)c1cccnc1 [Niacinamide] | -37.7% | -38.5% | 90.4% | 91% | 80.9% | – | – | – | – | – |
| O=C(CCNNC(=O)c1ccncc1)NCc1ccccc1 [Nialamide] | 2.8% | 14.8% | 95% | 96.2% | 91.7% | – | – | – | – | – |
| COC(=O)C1=C(C)NC(C)=C(C(=O)OCCN(C)Cc2ccccc2)C1c1cccc([N+](=O)[O-])c1 (stereo not shown) [Nicardipine] | – | – | 85.3% | 51.8% | 14.3% | – | – | – | – | activation at 0.08 µM ([1]; test compound at 0.08 uM, NCC library screen, relative to quetiapine, read-out: 0.08 uM (% Quet)): 8.8%; activation at 0.4 µM ([1]; test compound at 0.4 uM, NCC library screen, relative to quetiapine, read-out: 0.4 uM (% Quet)): -29% |

— PMC5011342, “A high throughput drug screening assay to identify compounds that promote oligodendrocyte differentiation using acutely dissociated and purified oligodendrocyte precursor cells” (BMC Research Notes, 2016)
